Test results reported in patent publication US7541353B2, “Compounds for the treatment of hepatitis C” (Bristol-Myers Squibb Company, priority 2007, dated 2009).
Like-named read-outs stand apart in the source and are kept apart here.

Columns and labels:
HCV NS5B = target: T1, HCV NS5B (Hepatitis C virus genotype 1b, UniProt Q9WMX2); experiment: Modified HCV NS5B RdRp enzyme assay (preincubation protocol); assay type: biochemical
T1 construct: The cDNA encoding the NS5B protein of HCV, genotype 1b; made in house; host or cells: E. coli BL21(DE3)
Protocol: HCV NS5B RdRp cloning, expression, and purification. The cDNA encoding the NS5B protein of HCV, genotype 1b, was cloned into the pET21a expression vector. The protein was expressed with an 18 amino acid C-terminal truncation to enhance the solubility. The E. coli competent cell line BL21(DE3) was used for expression of the protein. Cultures were grown at 37° C. for ˜4 hours until the cultures reached an optical density of 2.0 at 600 nm. The cultures were cooled to 20° C. and induced with 1 mM IPTG. Fresh ampicillin was added to a final concentration of 50 μg/ml and the cells were grown overnight at 20° C.
Cell pellets (3L) were lysed for purification to yield 15-24 mgs of purified NS5B. The lysis buffer consisted of 20 mM Tris-HCl, pH 7.4, 500 mM NaCl, 0.5% triton X-100, 1 mM DTT, 1 mM EDTA, 20% glycerol, 0.5 mg/ml lysozyme, 10 mM MgCl2, 15 ug/ml deoxyribonuclease I, and Complete™ protease inhibitor tablets (Roche). After addition of the lysis buffer, frozen cell pellets were resuspended using a tissue homogenizer. To reduce the viscosity of the sample, aliquots of the lysate were sonicated on ice using a microtip attached to a Branson sonicator. The sonicated lysate was centrifuged at 100,000×g for 1 hr at 4° C. and filtered through a 0.2 μm filter unit (Corning).
The protein was purified using two sequential chromatography steps: Heparin sepharose CL-6B and polyU sepharose 4B (Pharmacia). The chromatography buffers were identical to the lysis buffer but contained no lysozyme, deoxyribonuclease I, MgCl2 or protease inhibitor and the NaCl concentration of the buffer was adjusted according to the requirements for charging the protein onto the column. Each column was eluted with a NaCl gradient which varied in length from 5-50 column volumes depending on the column type. After the final chromatography step, the resulting purity of the enzyme is >90% based on SDS-PAGE analysis. The enzyme was aliquoted and stored at −80° C.
Standard HCV NS5B RdRp enzyme assay. HCV RdRp genotype 1b assays were run in a final volume of 60 μl in 96 well plates (Corning 3600). The assay buffer is composed of 20 mM Hepes, pH 7.5, 2.5 mM KCl, 2.5 mM MgCl2, 1 mM DTT, 1.6 U RNAse inhibitor (Promega N2515), 0.01 mg/ml BSA (Sigma B6917), and 2% glycerol. All compounds were serially diluted (3-fold) in DMSO and diluted further in water such that the final concentration of DMSO in the assay was 2%. HCV RdRp genotype 1b enzyme was used at a final concentration of 28 nM. A polyA template was used at 6 nM, and a biotinylated oligo-dT12 primer was used at 180 nM final concentration. Template was obtained commercially (Amersham 27-4110). Biotinylated primer was prepared by Sigma Genosys. 3H-UTP was used at 0.6 μCi (0.29 μM total UTP). Reactions were initiated by the addition of enzyme, incubated at 30° C. for 60 min, and stopped by adding 25 μl of 50 mM EDTA containing SPA beads (4 μg/μl, Amersham RPNQ 0007). Plates were read on a Packard Top Count NXT after >1 hr incubation at room temperature.
Modified HCV NS5B RdRp enzyme assay. A modified enzyme assay was performed essentially as described for the standard enzyme assay except for the following: The biotinylated oligo dT12 primer was precaptured on streptavidin-coated SPA beads by mixing primer and beads in assay buffer and incubating at room temperature for one hour. Unbound primer was removed after centrifugation. The primer-bound beads were resuspended in 20 mM Hepes buffer, pH 7.5 and used in the assay at final concentrations of 20 nM primer and 0.67 μg/μl beads. Order of addition in the assay: enzyme (1.75 nM) was added to diluted compound followed by the addition of a mixture of template (0.36 nM), 3H-UTP (0.6 μCi, 0.29 μM), and primer-bound beads, to initiate the reaction; concentrations given are final. Reactions were allowed to proceed for 4 hours at 30° C.
IC50 values for compounds were determined using seven different [I]. […]

HCV replicon cells = experiment: HCV replicon FRET assay; assay type: cell-based
Protocol: FRET Assay Preparation. The HCV FRET screening assay was performed in 96-well cell culture plates. The FRET peptide (Anaspec, Inc.) (Taliani et al., Anal. Biochem. 1996, 240, 60-67) contains a fluorescence donor, EDANS, near one end of the peptide and an acceptor, DABCYL, near the other end. The fluorescence of the peptide is quenched by […] resonance energy transfer (RET) between the donor and the acceptor, but as the NS3 protease cleaves the peptide the products are released from RET quenching and the fluorescence of the donor becomes apparent. The assay reagent was made as follows: 5× cell Luciferase cell culture lysis reagent from Promega (#E153A) diluted to 1× with dH2O, NaCl added to 150 mM final, the FRET peptide diluted to 20 μM final from a 2 mM stock.
To prepare plates, HCV replicon cells, with or without a Renilla luciferase reporter gene, were trypsinized and plated in a 96-well plate with titrated test compounds added in columns 3 through 12; columns 1 and 2 contained a control compound (HCV control inhibitor), and the bottom row contained cells with DMSO only. The plates were then placed in a CO2 incubator at 37° C.
Assays. Subsequent to addition of the test compounds described above (FRET Assay Preparation), at various times the plate was removed and Alamar blue solution (Trek Diagnostics, #00-100) was added to measure cellular toxicity. After reading in a Cytoflour 4000 instrument (PE Biosystems), plates were rinsed with PBS and then used for FRET assay by the addition of 30 ul of the FRET peptide assay reagent described above (FRET Assay Preparation) per well. The plate was then placed into the Cytoflour 4000 instrument which had been set to 340 excite/490 emission, automatic mode for up to 20 cycles and the plate read in a kinetic mode. Typically, the signal to noise using an endpoint analysis after the reads was at least three-fold. Alternatively, after Alamar blue reading, plates were rinsed with PBS, then used for luciferase assay using the Promega Dual-Glo Luciferase Assay System or the Promega EnduRen Live Cell Substrate assay.
Compound analysis was performed by quantification of the relative HCV replicon inhibition and the relative cytotoxicity values. To calculate cytoxicity values, the average Alamar Blue fluorescence signals from the control wells were set as 100% non-toxic. The individual signals in each of the compound test wells were then divided by the average control signal and multiplied by 100% to determine […]. To calculate the HCV replicon inhibition values, an average background value was obtained from the two wells containing the highest amount of HCV control inhibitor at the end of the assay period. These numbers were similar to those obtained from naïve Huh-7 cells. The background numbers were then subtracted from the average signal obtained from the control wells and this number was used as 100% activity. The individual signals in each of the compound test wells were then divided by the averaged control values after background subtraction and multiplied by 100% to determine percent activity. EC50 values were calculated as the concentration which caused a 50% reduction in FRET or luciferase activity. The two numbers generated for the compound plate, percent cytoxicity and percent activity, were used to determine compounds of interest for further analysis.

T1 sequence (Q9WMX2 2420-2992): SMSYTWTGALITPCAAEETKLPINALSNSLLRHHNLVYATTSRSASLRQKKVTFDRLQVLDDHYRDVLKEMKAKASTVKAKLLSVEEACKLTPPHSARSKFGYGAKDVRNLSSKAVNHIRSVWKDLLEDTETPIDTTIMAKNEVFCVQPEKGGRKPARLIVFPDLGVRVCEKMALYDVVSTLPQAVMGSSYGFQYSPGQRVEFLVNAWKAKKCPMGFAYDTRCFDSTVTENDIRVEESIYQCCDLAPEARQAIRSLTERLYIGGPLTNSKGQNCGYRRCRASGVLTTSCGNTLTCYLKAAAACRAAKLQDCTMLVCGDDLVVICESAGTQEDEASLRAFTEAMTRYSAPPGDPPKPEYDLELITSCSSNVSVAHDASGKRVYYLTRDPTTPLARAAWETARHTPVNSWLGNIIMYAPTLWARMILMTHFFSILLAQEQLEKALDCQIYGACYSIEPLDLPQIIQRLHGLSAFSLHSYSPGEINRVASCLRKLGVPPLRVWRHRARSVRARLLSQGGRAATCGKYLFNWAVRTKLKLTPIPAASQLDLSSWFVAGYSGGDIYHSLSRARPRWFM

| Structure (SMILES) | IC50 (HCV NS5B; preincubation protocol) | EC50 (HCV replicon cells; FRET assay) | IC50 (HCV NS5B) | EC50 (HCV replicon cells; Hepatitis C virus) |
| --- | --- | --- | --- | --- |
| COc1ccc2c(c1)C1CC1(C(=O)N1C3CCC1CC(N(C)Cc1ccccc1)C3)Cn1c-2c(C2CCCCC2)c2ccc(C(=O)NS(=O)(=O)C(C)C)cc21 (stereo not drawn) [drawing 55] | 4.58 to 500 nM | 4.58 to 500 nM |  |  |
| COc1ccc2c(c1)C1CC1(C(=O)N1C3CCC1CC(N(C)Cc1ccccc1)C3)Cn1c-2c(C2CCCCC2)c2ccc(C(=O)NS(=O)(=O)C(C)C)cc21 (stereo not drawn) [drawing 56] | 4.58 to 500 nM | 4.58 to 500 nM |  |  |
| COc1ccc2c(c1)C1CC1(C(=O)N1C3CCCC1COC3)Cn1c-2c(C2CCCCC2)c2ccc(C(=O)NS(=O)(=O)C3CCCCC3)cc21 (stereo not drawn) [drawing 68] |  |  | 4.58 to 500 nM | 4.58 to 500 nM |
